Reference: patent US20080108633A1, “Use 540” (AstraZeneca AB, priority 2006, published 2008)
One block for each compound: values may come before it.

How the values were obtained:
[1] = molecular target: T1, human Trk A kinase (Homo sapiens, UniProt P04629); assay: Trk A kinase assay (Alphascreen); assay type: biochemical; conditions: 70 μM ATP, 20 minutes, room temperature
T1 construct: HIS; made in house; host or cells: SF9 cells
Description: After incubation of the kinase with a biotinylated substrate and adenosine triphosphate (ATP) for 20 minutes at room temperature, the kinase reaction was stopped by the addition of 30 mM ethylenediaminetetraacetic acid (EDTA). The reaction was performed in 384 well microtitre plates and the reaction products were detected with the addition of strepavidin coated Donor Beads and phosphotyrosine-specific antibodies coated Acceptor Beads using the EnVision Multilabel Plate Reader after an overnight incubation at room temperature.

[2] = system: carrageenan-induced monoarthritis in rat; assay: Monoarthritis induced by carrageenan, Paw Print setup (hindpaw weight-bearing, "Walking pain"); assay type: in vivo; conditions: for difference in weight bearing between the hind paws: three hours after carrageenan (two hours after administration), vehicle group 30.2±3.2%, mean ±SEM, n=8
Description: The compounds used according to the invention when given by systemic administration to mice or rats, specifically reduce pain in the rat carrageenan test as described by Tonussi and Ferreira (Pain 1992, 48, 421-427). One single injection of carrageenan directly into the rat knee joint produces symptoms peaking at 3 to 4 hours and lasting for one to two days, and which are sensitive to treatment by most anti-nociceptive drugs (Tonussi and Ferreira, Pain 1992, 48, 421-427). Under isoflurane anesthesia, 50 μL of carrageenan (7.5 mg/mL) was injected into the left tibio-tarsal (ankle) joint from the dorsal side. This injection causes a localized inflammation increasing to a maximum between 4 h to 8 h after induction, after which it gradually decreases, and the animals display decreased weight bearing on and guarding of the limb. The Paw Print walkway consists of a 100×10 cm path with an access point at one short end and an exit at the other, and the rats are trained to make a swift, continuous passage. The walkway has a glass floor where light is projected into one long edge via fiber optics. Projecting the light in this fashion allows for virtually complete internal reflection within the glass floor. Only where an object touches the glass, such as the placement of a rat paw, light is scattered at the point of contact and produces an illuminated print (Betts, Duckworth, Eng. Med. 1978, 7, 223-228) that is recorded by a wide-angle camera placed under the walkway. The light intensity (range 0-255) of the illumination depends on the degree of contact against the floor and increases with the applied pressure (Clarke, Physiology & Behavior 1995, 58, 415-419). The Paw Print setup is a modified version of the CatWalk introduced by […], van Laar, Veldhuis, Gispen (J. Neurotrauma 2001, 18, 187-201), and has a computerized gait detection algorithm extracting several parameters pertaining to the rat's gait pattern and weight-bearing. The animals were trained to cross the walkway twice, one and two days before induction of monoarthritis. Recordings were subsequently made on the day of testing, immediately before, and three and five hours after carrageenan injection, corresponding to two and four hours after per oral administration of test compound. The following parameters were used for analysis: Weight-bearing per paw=The total sum of maximum light intensities for all pixels in the print of one paw is multiplied by the number of pixels of the print area. A paw placement consists of a number of pixels with light intensity above a certain threshold value (80 in this study). During the time course of one paw placement, a maximum value of light intensity is recorded for each pixel. Based on the weight-bearing results, the Paw Print algorithm chooses the median print per paw in one walkway crossing. The median weight-bearing of each paw constitutes a percentage of the sum of all four paws' median weight-bearing results. The difference in percent weight-bearing between the two hind paws is shown (“Walking pain”). The test compounds were administered 60 min after induction of monoarthritis. […] Results were analysed using 1-Way ANOVA followed by Newman-Keuls for comparison between treatment groups for data obtained at each time-point after administration. The level of significance was set at p<0.05 (SigmaStat® 2.03).

T1 sequence (P04629 442-796): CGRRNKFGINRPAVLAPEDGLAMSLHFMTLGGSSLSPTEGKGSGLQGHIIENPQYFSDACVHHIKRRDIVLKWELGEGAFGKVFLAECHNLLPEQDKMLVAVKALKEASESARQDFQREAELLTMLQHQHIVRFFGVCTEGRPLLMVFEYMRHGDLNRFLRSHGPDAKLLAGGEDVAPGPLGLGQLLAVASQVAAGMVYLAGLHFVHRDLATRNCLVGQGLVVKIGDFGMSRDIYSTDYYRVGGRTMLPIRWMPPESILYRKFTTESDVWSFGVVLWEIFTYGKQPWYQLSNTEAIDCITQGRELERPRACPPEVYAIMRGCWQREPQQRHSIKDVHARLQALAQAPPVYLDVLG

IC50 [1]: 10 nM
SMILES: C[C@H](Nc1ncc(F)c(Nc2cc(C3CC3)[nH]n2)n1)c1ccc(F)cn1 [(S)-5-Fluoro-N^4-(5-cyclopropyl-1H-pyrazol-3-yl)-N^2-(1-(5-fluoropyridin-2-yl)ethyl)pyrimidine-2,4-diamine]

SMILES: CC(C)Oc1cc(Nc2nc(N[C@@H](C)c3ccc(F)cn3)ncc2Cl)n[nH]1 [5-Chloro-N^2-[(1S)-1-(5-fluoropyridin-2-yl)ethyl]-N^4-(5-isopropoxy-1H-pyrazol-3-yl)pyrimidine-2,4-diamine]
difference in weight bearing between the hind paws ([2]; 30 μmol/kg per oral): 9.2±4.0%
difference in weight bearing between the hind paws ([2]; 120 μmol/kg per oral): 14.9±4.4%
effect on the inflammatory pain induced by intra-articular ankle injection of carrageenan ([2]; all doses (30 μmol/kg, 60 μmol/kg p.o.)): significant effect
hindpaw weight distribution compared to the vehicle group ([2]; all three doses 30, 60 and 120 μmol/kg per oral, both at two and four hours after administration, p<0.05): significantly reduced
dose dependence of the effect on hindpaw weight distribution ([2]; dose interval tested, 30-120 μmol/kg per oral): no apparent dose dependence

SMILES: C[C@H](Nc1ncc(Cl)c(Nc2cc(C3CC3)[nH]n2)n1)c1ccc(F)cn1 [(S)-5-Chloro-N^4-(5-cyclopropyl-1H-pyrazol-3-yl)-N^2-(1-(5-fluoropyridin-2-yl)ethyl)pyrimidine-2,4-diamine]
IC50 [1]: 8 nM

IC50 [1]: 5 nM
SMILES: C[C@H](Nc1ncc(Br)c(Nc2cc(C3CC3)[nH]n2)n1)c1ccc(F)cn1 [(S)-5-Bromo-N^4-(5-cyclopropyl-1H-pyrazol-3-yl)-N^2-(1-(5-fluoropyridin-2-yl)ethyl)pyrimidine-2,4-diamine]
